Experiments:
[1] = system: full thickness cutaneous incisional wounds; test: Scarring model: rat incisional wounds, macroscopic and microscopic VAS scar assessment at day 70; format: in vivo, Sprague Dawley rats; conditions: for macroscopic appearance of scars (macroscopic VAS): before wounding and 1 day post-wounding; for macroscopic appearance of scars (macroscopic VAS) / microscopic appearance of scars (microscopic VAS): vs naïve control or diluent control
Experimental: At day 0, male Sprague Dawley rats (200-250 g) were anaesthetised, shaved and wound sites were marked according to the Renovo rat incisional wounding template (2 wound model, 2×1 cm wounds, 5 cm from the base of the skull and 1 cm from the midline in each rat). One hundred microlitres of 6-mercaptopurine at 1 ng, 10 ng or 1000 ng in phosphate buffered saline (PBS, pH 7.2; GIBCO BRL, Cat. #20012-019) containing 5% ethanol was injected intradermally at the wound sites. […] Separate groups of rats used as naïve controls and diluent controls. Naïve control animals were wounded without treatment, whilst diluent control animals were injected with 100 μl of the PBS/ethanol mixture prior to wounding. All treated or diluent control wounds were re-injected again 1 day post-wounding with the appropriate treatment via injection of 50 μl to each of the two margins of the 1 cm wound. Wounds from the treated, naïve control and diluent control animals were all harvested at day 70 post-wounding. The wounds were photographed after wounding, prior to re-injection on day 1 and on day of harvest. The scars were assessed using standard macroscopic scar assessment using a visual analogue scale (VAS) consisting of a 0-10 cm line representing a scale, from left to right, of 0 (corresponding to normal skin) to 10 (indicative of a bad scar). For microscopic assessment the scars were excised from the experimental rats (incorporating a small amount of surrounding normal tissue) and fixed in 10% (v/v) buffered formal saline. The fixed tissue was then processed for wax histology, stained using Masson's trichrome, and scarring assessed using a microscopic visual analogue scale (VAS).

incisional wounds = test: Incisional wound healing model, wounds harvested three days post-wounding; format: in vivo, Sprague Dawley rats
Experimental: At day 0, male Sprague Dawley rats (200-250 g) were anaesthetised, shaved and wound sites were marked according to the Renovo rat incisional wounding template (2 wound model, 2×1 cm wounds, 5 cm from the base of the skull and 1 cm from the midline in each rat). One hundred microlitres of 6-mercaptopurine at 1 ng, 10 ng or 1000 ng in phosphate buffered saline (PBS, pH 7.2; GIBCO BRL, Cat. #20012-019) containing 5% ethanol was injected intradermally at the wound sites. The intradermal injections caused the formation of a raised bleb, which was then immediately incised to form 1 cm long experimental wounds. Separate groups of rats used as naïve controls and diluent controls. Naïve control animals were wounded without treatment, whilst diluent control animals were injected with 100 μl of the PBS/ethanol mixture prior to wounding. All treated or diluent control wounds were re-injected again 1 day post-wounding with the appropriate treatment via injection of 50 μl to each of the two margins of the 1 cm wound. Wounds from the treated, naïve control and diluent control animals were all harvested at day 70 post-wounding.
Treated and control incisional wounds were created as described above, to allow assessment of the effects of NR4A agonists, such as 6-mercaptopurines, on wound healing. Wounds from the treated, naïve control and diluent control animals were all harvested at three days post-wounding.
The wounds were photographed after wounding, prior to re-injection on day one and on the day of harvest. Day three incisional or excisional wounds were excised from the experimental rats (incorporating a small amount of surrounding normal tissue). […] The fixed tissue was then processed for wax histology, stained using Masson's trichrome, and wound width assessed using image analysis software. Width of incisional wounds was measured at a point mid-way through the depth of the wound, whereas width of excisional wounds was measured at the top of the wounds.

excisional wounds = test: Excisional wound healing model, 5 mm punch biopsy wounds harvested day 3; format: in vivo, Sprague Dawley rats
Experimental: One hundred microlitres of 6-mercaptopurine at 1 ng, 10 ng or 1000 ng in phosphate buffered saline (PBS, pH 7.2; GIBCO BRL, Cat. #20012-019) containing 5% ethanol was injected intradermally at the wound sites. […] Separate groups of rats used as naïve controls and diluent controls. Naïve control animals were wounded without treatment, whilst diluent control animals were injected with 100 μl of the PBS/ethanol mixture prior to wounding. […] For microscopic assessment the scars were excised from the experimental rats (incorporating a small amount of surrounding normal tissue) and fixed in 10% (v/v) buffered formal saline. […]

NR4A1 = NR4A1 (Homo sapiens, UniProt P22736); conditions: cited from earlier work
NR4A1, sequence (P22736 whole entry): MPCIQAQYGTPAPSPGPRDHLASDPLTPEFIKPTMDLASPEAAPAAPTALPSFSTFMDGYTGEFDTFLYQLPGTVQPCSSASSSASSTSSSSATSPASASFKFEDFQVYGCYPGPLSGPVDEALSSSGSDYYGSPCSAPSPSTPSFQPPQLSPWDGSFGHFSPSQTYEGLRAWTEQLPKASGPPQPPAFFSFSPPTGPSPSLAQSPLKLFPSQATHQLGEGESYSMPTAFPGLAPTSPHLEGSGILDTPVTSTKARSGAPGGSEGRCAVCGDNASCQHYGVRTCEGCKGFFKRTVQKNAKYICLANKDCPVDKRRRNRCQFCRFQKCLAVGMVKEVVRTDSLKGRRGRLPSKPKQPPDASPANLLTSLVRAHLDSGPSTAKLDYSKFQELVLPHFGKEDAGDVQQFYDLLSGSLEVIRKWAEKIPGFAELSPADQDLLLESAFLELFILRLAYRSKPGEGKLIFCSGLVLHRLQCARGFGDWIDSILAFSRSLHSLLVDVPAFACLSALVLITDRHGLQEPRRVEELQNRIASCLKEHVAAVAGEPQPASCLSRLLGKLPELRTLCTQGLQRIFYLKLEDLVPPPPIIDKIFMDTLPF

NR4A2 = NR4A2 (Homo sapiens, UniProt P43354); conditions: cited from earlier work
NR4A2, sequence (P43354 whole entry): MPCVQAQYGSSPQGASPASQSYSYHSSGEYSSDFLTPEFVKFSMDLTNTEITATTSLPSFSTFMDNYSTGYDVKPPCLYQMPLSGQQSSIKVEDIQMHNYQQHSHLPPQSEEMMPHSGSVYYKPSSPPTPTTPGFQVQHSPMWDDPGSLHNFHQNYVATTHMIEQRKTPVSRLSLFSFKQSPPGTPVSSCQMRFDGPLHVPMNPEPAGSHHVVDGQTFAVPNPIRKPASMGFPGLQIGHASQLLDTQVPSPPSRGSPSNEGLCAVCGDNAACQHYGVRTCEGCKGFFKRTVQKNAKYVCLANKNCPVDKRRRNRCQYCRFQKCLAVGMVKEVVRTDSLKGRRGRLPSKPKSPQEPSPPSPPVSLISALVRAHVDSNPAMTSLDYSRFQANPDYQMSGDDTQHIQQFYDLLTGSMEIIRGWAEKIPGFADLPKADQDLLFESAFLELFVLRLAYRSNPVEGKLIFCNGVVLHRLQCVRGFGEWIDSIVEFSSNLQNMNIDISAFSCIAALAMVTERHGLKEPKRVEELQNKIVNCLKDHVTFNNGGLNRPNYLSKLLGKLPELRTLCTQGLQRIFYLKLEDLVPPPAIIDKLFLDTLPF

NR4A3 = NR4A3 (Homo sapiens, UniProt Q92570); conditions: cited from earlier work
NR4A3, sequence (Q92570 whole entry): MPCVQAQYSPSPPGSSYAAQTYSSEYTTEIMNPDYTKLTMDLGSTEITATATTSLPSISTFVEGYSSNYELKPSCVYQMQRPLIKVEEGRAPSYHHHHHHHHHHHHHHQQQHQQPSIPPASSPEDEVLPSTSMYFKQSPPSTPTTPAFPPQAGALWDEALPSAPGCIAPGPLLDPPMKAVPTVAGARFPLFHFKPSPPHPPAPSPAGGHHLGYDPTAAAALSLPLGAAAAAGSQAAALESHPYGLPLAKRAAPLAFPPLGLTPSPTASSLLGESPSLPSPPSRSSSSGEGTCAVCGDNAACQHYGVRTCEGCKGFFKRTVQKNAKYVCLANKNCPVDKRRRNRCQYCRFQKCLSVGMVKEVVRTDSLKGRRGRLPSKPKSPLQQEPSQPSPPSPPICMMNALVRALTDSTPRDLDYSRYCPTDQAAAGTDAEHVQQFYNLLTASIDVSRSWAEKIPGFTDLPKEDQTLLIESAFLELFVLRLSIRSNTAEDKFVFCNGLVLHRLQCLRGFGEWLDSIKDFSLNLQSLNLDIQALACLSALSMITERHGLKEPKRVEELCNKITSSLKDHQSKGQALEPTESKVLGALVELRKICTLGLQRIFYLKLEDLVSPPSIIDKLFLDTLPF

[2] = day 3, measured mid-way through wound depth, 1, 10 or 1000 ng/100 μl intradermal
[3] = day 3, measured at top of wound, 1, 10 or 1000 ng/100 μl intradermal

Sc1ncnc2nc[nH]c12 [6-mercaptopurine]
macroscopic appearance of scars (macroscopic VAS) ([1]; 1 ng/100 μl intradermal): improved | microscopic appearance of scars (microscopic VAS) ([1]; 1 ng/100 μl intradermal): significantly improved | inhibition of scarring, microscopic appearance ([1]; 1 ng/100 μl, compared to both diluent and control wounds (p<0.01)): significantly inhibited scarring | inhibition of scarring, macroscopic appearance of treated wounds ([1]; 1 ng/100 μl, p<0.05 as compared to diluent controls): statistically significant inhibition of scarring | macroscopic appearance of scars (macroscopic VAS) ([1]; 10 ng/100 μl intradermal): improved | microscopic appearance of scars (microscopic VAS) ([1]; 10 ng/100 μl intradermal): significantly improved | inhibition of scarring, microscopic appearance ([1]; 10 ng/100 μl, compared to diluent and naïve controls (p<0.05)): significantly inhibited scarring | macroscopic appearance of scars (macroscopic VAS) ([1]; 1000 ng/100 μl intradermal): improved | microscopic appearance of scars (microscopic VAS) ([1]; 1000 ng/100 μl intradermal): significantly improved | inhibition of scarring, microscopic appearance ([1]; 1000 ng/100 μl, compared to diluent controls (p<0.05)): significantly inhibited scarring | inhibition of scarring, macroscopic appearance of treated wounds ([1]; 1000 ng/100 μl, p<0.05 as compared to both diluent and naïve controls): statistically significant inhibition of scarring | width of incisional wounds compared to controls (incisional wounds; [2]): not increased | width of incisional wounds compared to naïve controls (incisional wounds; [2]): consistently lower | re-epithelialisation of incisional wounds (incisional wounds; three days after wounding, comparable with control wounds): fully re-epithelialised | width of excisional wounds lower than naïve controls, significance (excisional wounds; 1 ng/100 μl, day 3, p<0.01 versus naïve control only (FIG. 5)): significantly so | width of excisional wounds compared to controls (excisional wounds; [3]): not increased | width of excisional wounds compared to naïve controls (excisional wounds; [3]): consistently lower | percentage re-epithelialisation of excisional wounds (excisional wounds; three days after excision, vs diluent control and naïve control): trend towards increased re-epithelialisation | agonist activity (NR4A1): agonist | agonist activity (NR4A2): agonist | agonist activity (NR4A3): agonist

From US20100204248A1, “MEDICAMENTS AND METHODS FOR INHIBITION OF NON-OCULAR SCARRING” (Renovo Limited, priority 2007, published 2010)
